Laboratory results from patent publication US20140081017A1, “Histone Deacetylase Inhibitors for Enhancing Activity of Antifungal Agents” (METHYLGENE INC., priority 2012, published 2014).
Values after ≈ are worked out from the molar mass of the structure shown. Read-outs that look alike come from different tables or passages of the source.

Legend:
C. glabrata = assay: Checkerboard FIC assay in combination with fluconazole (MIC alone and in combination, FICI); format: cell-based, Candida glabrata; settings: for FICI of combination resulting in fluconazole MIC of: 2 ug/mL / FICI of combination resulting in fluconazole MIC of: 4 ug/mL / FICI of combination resulting in fluconazole MIC of: 8 ug/mL: FICI calculated using a fluconazole MIC of 16 μg/mL; for FICI of combination resulting in fluconazole MIC of: 2 ug/mL (value in parenthesis) / FICI of combination resulting in fluconazole MIC of: 4 ug/mL (value in parenthesis) / FICI of combination resulting in fluconazole MIC of: 8 ug/mL (value in parenthesis): FICI using a fluconazole MIC of 128 μg/mL; for MIC: Nakaseomyces glabratus; for Concentration of Methylgene compound to synergize fluconazole MIC to 2 ug/mL / Concentration of Methylgene compound to synergize fluconazole MIC to 4 ug/mL / Concentration of Methylgene compound to synergize fluconazole MIC to 8 ug/mL: in combination with fluconazole; for Concentration of Methylgene compound to synergize fluconazole MIC to 2 ug/mL: fluconazole MIC lowered to 2 ug/mL; for Concentration of Methylgene compound to synergize fluconazole MIC to 4 ug/mL: fluconazole MIC lowered to 4 ug/mL; for Concentration of Methylgene compound to synergize fluconazole MIC to 8 ug/mL: fluconazole MIC lowered to 8 ug/mL; for Multiple of compound MIC to synergize fluconazole MIC to 2 ug/mL / Multiple of compound MIC to synergize fluconazole MIC to 4 ug/mL / Multiple of compound MIC to synergize fluconazole MIC to 8 ug/mL: concentration in combination as multiple of the compound's MIC alone; for Multiple of compound MIC to synergize fluconazole MIC to 2 ug/mL: fluconazole MIC 2 ug/mL; for Multiple of compound MIC to synergize fluconazole MIC to 4 ug/mL: fluconazole MIC 4 ug/mL; for Multiple of compound MIC to synergize fluconazole MIC to 8 ug/mL: fluconazole MIC 8 ug/mL
Summary of the method: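 C. glabrata was tested by CLSI broth microdilution checkerboard, crossing 2-fold dilutions of compound with 2-fold dilutions of fluconazole. The medium was RPMI with 0.165 M MOPS at pH 7.0, inoculated from a 0.5 McFarland suspension diluted 1:100, then incubated about 48 h at 35 °C. Single-agent MICs gave the FIC and FICI values.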

Candida glabrata = assay: Minimal Inhibitory Concentration (MIC) assay, broth microdilution per CLSI; format: cell-based; settings: Nakaseomyces glabratus, read-out: Minimum Inhibitory Concentrations against Yeast Isolates, Candida glabrata;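 further: two read times 24 hr and 48 hr of incubation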
Summary of the method: (§1)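 Yeasts incubated ~24-48 hr at 35°C in MOPS-buffered RPMI (0.165 M, pH 7.0) containing DMSO-dissolved compound, following CLSI microdilution. Inoculum: 0.5 McFarland, diluted 1:100. MIC read visually as lowest concentration inhibiting growth (prominent-decrease endpoint for fluconazole).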

Candida albicans = assay: as above; format: cell-based; settings: Candida albicans, read-out: Minimum Inhibitory Concentrations against Yeast Isolates, Candida albicans;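 further: two read times 24 hr and 48 hr of incubation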
Summary of the method: as §1

Candida parapsilosis = assay: as above; format: cell-based; settings: Lodderomyces parapsilosis, read-out: Minimum Inhibitory Concentrations against Yeast Isolates, Candida parapsilosis;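 further: two read times 24 hr and 48 hr of incubation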
Summary of the method: as §1

[1] = MIC of the example compound alone against C. glabrata in the checkerboard assay, approximately 48 hr, read-out: Methylgene MIC
[2] = test compound alone, C. glabrata, approx. 48 hr at 35° C., read-out: Compound MIC
[3] = 24 hr reading (first value of cell 24 hr/48 hr)
[4] = 48 hr reading (second value of cell 24 hr/48 hr)

With `O=C(Cc1ccc(CCCCc2ccc(CC(=O)NO)cc2)cc1)NO` [Example 7, 2,2′-(4,4′-(butane-1,4-diyl)bis(4,1-phenylene))bis(N-hydroxyacetamide)] the “FICI of combination resulting in fluconazole MIC of: 2 ug/mL” value (C. glabrata; C. glabrata) was greater than 0.125, the “FICI of combination resulting in fluconazole MIC of: 4 ug/mL” value (C. glabrata; C. glabrata) was greater than 0.188 and the “FICI of combination resulting in fluconazole MIC of: 8 ug/mL” value (C. glabrata; C. glabrata) was greater than 0.281. The “FICI of combination resulting in fluconazole MIC of: 2 ug/mL (value in parenthesis)” value (from here on “FICI … 2 ug/mL (value in parenthesis)”) (C. glabrata; C. glabrata) was greater than 0.078, the “FICI of combination resulting in fluconazole MIC of: 4 ug/mL (value in parenthesis)” value (from here on “FICI … 4 ug/mL (value in parenthesis)”) (C. glabrata; C. glabrata) was greater than 0.094 and the “FICI of combination resulting in fluconazole MIC of: 8 ug/mL (value in parenthesis)” value (from here on “FICI … 8 ug/mL (value in parenthesis)”) (C. glabrata; C. glabrata) was greater than 0.094. The MIC (C. glabrata; [1]) was greater than 4 µg/mL, the MIC (C. glabrata; [2]) was greater than 4 µg/mL and the “Concentration of Methylgene compound to synergize fluconazole MIC to 2 ug/mL” value (from here on “Concentration … to 2 ug/mL”) (C. glabrata; C. glabrata) was 0.5 µg/mL. The “Concentration of Methylgene compound to synergize fluconazole MIC to 4 ug/mL” value (shortened to “Concentration … to 4 ug/mL”) (C. glabrata; C. glabrata) was 0.5 µg/mL, the “Concentration of Methylgene compound to synergize fluconazole MIC to 8 ug/mL” value (“Concentration … to 8 ug/mL” below) (C. glabrata; C. glabrata) was 0.25 µg/mL and the MIC (Candida glabrata; [3]) was 0.5 µg/mL (≈ 1.4 µM). For the same molecule, the MIC (Candida glabrata; [4]) was greater than 8 µg/mL, the MIC (Candida albicans; [3]) was greater than 8 µg/mL and the MIC (Candida albicans; [4]) was greater than 8 µg/mL. For the same molecule, the MIC (Candida parapsilosis; [3]) was greater than 8 µg/mL and the MIC (Candida parapsilosis; [4]) was greater than 8 µg/mL.
For `O=C(Cc1ccc(CCCCc2ccc(NC(=O)NCCN3CCOCC3)cc2)cc1)NO` [Example 47, N-hydroxy-2-(4-(4-(4-(3-(2-morpholinoethyl)ureido)phenyl)butyl)phenyl)acetamide], the “FICI of combination resulting in fluconazole MIC of: 2 ug/mL” value (C. glabrata; C. glabrata) was 0.563, the “FICI of combination resulting in fluconazole MIC of: 4 ug/mL” value (C. glabrata; C. glabrata) was 0.375 and the “FICI of combination resulting in fluconazole MIC of: 8 ug/mL” value (C. glabrata; C. glabrata) was 0.500. The “FICI … 2 ug/mL (value in parenthesis)” value (C. glabrata; C. glabrata) was 0.516, the “FICI … 4 ug/mL (value in parenthesis)” value (C. glabrata; C. glabrata) was 0.281 and the “FICI … 8 ug/mL (value in parenthesis)” value (C. glabrata; C. glabrata) was 0.313. For the same molecule, the MIC (C. glabrata; [1]) was 16 µg/mL, the MIC (C. glabrata; [2]) was 16 µg/mL and the “Multiple of compound MIC to synergize fluconazole MIC to 2 ug/mL” value (C. glabrata) was “(½x)”. For the same molecule, the “Multiple of compound MIC to synergize fluconazole MIC to 4 ug/mL” value (C. glabrata) was “(¼x)”, the “Multiple of compound MIC to synergize fluconazole MIC to 8 ug/mL” value (C. glabrata) was “(¼x)” and the “Concentration … to 2 ug/mL” value (C. glabrata; C. glabrata) was 8 µg/mL. The “Concentration … to 4 ug/mL” value (C. glabrata; C. glabrata) was 4 µg/mL, the “Concentration … to 8 ug/mL” value (C. glabrata; C. glabrata) was 4 µg/mL and the MIC (Candida glabrata; [3]) was 4 µg/mL (≈ 8.8 µM). For the same molecule, the MIC (Candida glabrata; [4]) was 16 µg/mL (≈ 35.2 µM), the MIC (Candida albicans; [3]) was greater than 32 µg/mL and the MIC (Candida albicans; [4]) was greater than 32 µg/mL. It also gave an MIC (Candida parapsilosis; [3]) greater than 32 µg/mL and an MIC (Candida parapsilosis; [4]) greater than 32 µg/mL.
`O=C(Cc1ccc(CCCC(=O)c2ccccc2)cc1)NO` [Example 28, N-hydroxy-2-(4-(4-oxo-4-phenylbutyl)phenyl)acetamide] was tested, and the “FICI of combination resulting in fluconazole MIC of: 2 ug/mL” value (C. glabrata; C. glabrata) was 0.313, the “FICI of combination resulting in fluconazole MIC of: 4 ug/mL” value (C. glabrata; C. glabrata) was 0.250 and the “FICI of combination resulting in fluconazole MIC of: 8 ug/mL” value (C. glabrata; C. glabrata) was 0.313. For the same molecule, the “FICI … 2 ug/mL (value in parenthesis)” value (C. glabrata; C. glabrata) was 0.266, the “FICI … 4 ug/mL (value in parenthesis)” value (C. glabrata; C. glabrata) was 0.156 and the “FICI … 8 ug/mL (value in parenthesis)” value (C. glabrata; C. glabrata) was 0.125. For the same molecule, the MIC (C. glabrata; [1]) was 16 µg/mL, the MIC (C. glabrata; [2]) was 16 µg/mL and the “Multiple of compound MIC to synergize fluconazole MIC to 2 ug/mL” value (C. glabrata) was “(¼x)”. The “Multiple of compound MIC to synergize fluconazole MIC to 4 ug/mL” value (C. glabrata) was “(⅛x)”, the “Multiple of compound MIC to synergize fluconazole MIC to 8 ug/mL” value (C. glabrata) was “( 1/16x)” and the “Concentration … to 2 ug/mL” value (C. glabrata; C. glabrata) was 4 µg/mL. The “Concentration … to 4 ug/mL” value (C. glabrata; C. glabrata) was 2 µg/mL, the “Concentration … to 8 ug/mL” value (C. glabrata; C. glabrata) was 1 µg/mL and the MIC (Candida glabrata; [3]) was 8 µg/mL (≈ 26.9 µM). For the same molecule, the MIC (Candida glabrata; [4]) was 16 µg/mL (≈ 53.8 µM), the MIC (Candida albicans; [3]) was 32 µg/mL (≈ 108 µM) and the MIC (Candida albicans; [4]) was 32 µg/mL (≈ 108 µM). For the same molecule, the MIC (Candida parapsilosis; [3]) was greater than 32 µg/mL and the MIC (Candida parapsilosis; [4]) was greater than 32 µg/mL.
